Data on 18 compounds can be found in patent US9758491B2, “Molecules having pesticidal utility, and intermediates, compositions, and processes, related thereto” (priority 2015, dated 2017).

What all share (format): in vivo
The test system of data set [1] is Cabbage Looper (Trichoplusia ni, TRIPNI). Put plainly: Bioassay on Cabbage Looper (CL), 128-well diet tray assay. The settings on record: 168 h, 50 μg/cm^2 on artificial diet, second instar larvae, 25° C., five to seven days, average of eight wells, read-out: CL rating, % Control (or Mortality). Here is the method:
(§1) Certain molecules disclosed in this document were tested against BAW and CL using procedures described in the following examples. In the reporting of the results, the “BAW & CL Rating Table” was used (See Table Section).
Bioassays on CL were conducted using a 128-well diet tray assay. One to five second instar CL larvae were placed in each well (3 mL) of the diet tray that had been previously filled with 1 mL of artificial diet to which 50 μg/cm^2 of the test molecule (dissolved in 50 μL of 90:10 acetone-water mixture) had been applied (to each of eight wells) and then allowed to dry. Trays were covered with a clear self-adhesive cover, vented to allow gas exchange, and held at 25° C., 14:10 light-dark for five to seven days. Percent mortality was recorded for the larvae in each well; activity in the eight wells was then averaged. The results are indicated in the table entitled “Table ABC: Biological Results” (See Table Section).

In data set [2] the test system is Yellow Fever Mosquito (Aedes aegypti, AEDSAE). Nature of the data set: Bioassay on Yellow Fever Mosquito (YFM) larvae, 96-well plate. The following applies: 4000 ppm DMSO master solution diluted, about 1 day-old larvae, room temperature, scored after 3 days. As to the method: Certain molecules disclosed in this document were tested against YFM using procedures described in the following paragraph. In the reporting of the results, the “YFM Rating Table” was used (See Table Section).
Master plates containing 400 μg of a molecule dissolved in 100 μL of dimethyl sulfoxide (DMSO) (equivalent to a 4000 ppm solution) are used. A master plate of assembled molecules contains 15 μL per well. To this plate, 135 μL of a 90:10 water/acetone mixture is added to each well. A robot (Biomek® NXP Laboratory Automation Workstation) is programmed to dispense 15 μL aspirations from the master plate into an empty 96-well shallow plate (“daughter” plate). There are 6 reps (“daughter” plates) created per master. The created “daughter” plates are then immediately infested with YFM larvae.
The day before plates are to be treated, mosquito eggs are placed in Millipore water containing liver powder to begin hatching (4 g into 400 mL). After the “daughter” plates are created using the robot, they are infested with 220 μL of the liver powder/larval mosquito mixture (about 1 day-old larvae). After plates are infested with mosquito larvae, a non-evaporative lid is used to cover the plate to reduce drying. Plates are held at room temperature for 3 days prior to grading. After 3 days, each well is observed and scored based on mortality. The results are indicated in the table entitled “Table ABC: Biological Results” (See Table Section).

Data set [3] relates to Beet Armyworm (Spodoptera exigua, LAPHEG). Nature of the data set: Bioassay on Beet Armyworm (BAW), 128-well diet tray assay. The following applies: 168 h, 50 μg/cm^2 on artificial diet, second instar larvae, 25° C., five to seven days, average of eight wells, read-out: BAW rating, % Control (or Mortality). As to the method: as §1
Bioassays on BAW were conducted using a 128-well diet tray assay. One to five second instar BAW larvae were placed in each well (3 mL) of the diet tray that had been previously filled with 1 mL of artificial diet to which 50 μg/cm^2 of the test molecule (dissolved in 50 μL of 90:10 acetone-water mixture) had been applied (to each of eight wells) and then allowed to dry. Trays were covered with a clear self-adhesive cover, vented to allow gas exchange, and held at 25° C., 14:10 light-dark for five to seven days. Percent mortality was recorded for the larvae in each well; activity in the eight wells was then averaged. The results are indicated in the table entitled “Table ABC: Biological Results” (See Table Section).

As usually defined, the mortality is the share of the test organisms that died. Take `COc1ccccc1N1CCN/C1=N\C(=O)Nc1ccc(-c2ncn(-c3ccc(OC(F)(F)F)cc3)n2)cc1` [F18, (E)-1-(1-(2-Methoxyphenyl)imidazolidin-2-ylidene)-3-(4-(1-(4-(trifluoromethoxy)phenyl)-1H-1,2,4-triazol-3-yl)phenyl)urea]: the mortality at 50 µg/cm2 in data set [1] and in data set [3] was 50 to 100% throughout. In addition, in data set [2], the “YFM rating, % Control (or Mortality)” value was “A (80-100)”.

Consider `N/C(=N\C(=O)Nc1ccc(-c2ncn(-c3ccc(OC(F)(F)F)cc3)n2)cc1)Nc1ccccc1` [F4, (1E)-1-[amino(anilino)methylene]-3-[4-[1-[4-(trifluoromethoxy)phenyl]-1H-1,2,4-triazol-3-yl]phenyl]urea], for which the mortality at 50 µg/cm2 in data set [1] and in data set [3] was 50 to 100% each time. For the same compound, in data set [2], the “YFM rating, % Control (or Mortality)” value was “A (80-100)”.

In the case of `Cc1cccc(C)c1N/C(N)=N/C(=O)Nc1ccc(-c2ncn(-c3ccc(OC(F)(F)F)cc3)n2)cc1` [F11, (1E)-1-[amino-(2,6-dimethylanilino)methylene]-3-[4-[1-[4-(trifluoromethoxy)phenyl]-1H-1,2,4-triazol-3-yl]phenyl]urea], the mortality at 50 µg/cm2 in data set [3] is 50 to 100%.

In the case of `Cc1ccc(F)cc1N1CCN/C1=N\C(=O)Nc1ccc(-c2ncn(-c3ccc(OC(F)(F)F)cc3)n2)cc1` [F13, (E)-1-(1-(5-Fluoro-2-methylphenyl)imidazolidin-2-ylidene)-3-(4-(1-(4-(trifluoromethoxy)phenyl)-1H-1,2,4-triazol-3-yl)phenyl)urea], the mortality at 50 µg/cm2 in data set [1] and in data set [3] was 50 to 100% each time. Also, the “YFM rating, % Control (or Mortality)” value in data set [2] is recorded as “D (No activity noticed in this bioassay)”.

With `Cc1ccc(N2CCN/C2=N\C(=O)Nc2ccc(-c3ncn(-c4ccc(OC(F)(F)F)cc4)n3)cc2)c(C)c1` [F15, (E)-1-(1-(2.4-dimethylphenyl)imidazolidin-2-ylidene)-3-(4-(1-(4-(trifluoromethoxy)phenyl)-1H-1,2,4-triazol-3-yl)phenyl)urea], the mortality at 50 µg/cm2 in data set [1] and in data set [3] was 50 to 100% in each case. Further, the “YFM rating, % Control (or Mortality)” value in data set [2] is reported as “A (80-100)”.

For the compound `O=C(/N=C1\NCCN1c1ccccc1OC(F)(F)F)Nc1ccc(-c2ncn(-c3ccc(OC(F)(F)F)cc3)n2)cc1` [F19, (E)-1-(4-(1-(4-(Trifluoromethoxy)phenyl)-1H-1,2,4-triazol-3-yl)phenyl)-3-(1-(2-(trifluoromethoxy)phenyl)imidazolidin-2-ylidene)urea], the mortality at 50 µg/cm2 was 50 to 100% in data set [1] and 0 to 50% in data set [3]. The “YFM rating, % Control (or Mortality)” value in data set [2] is recorded as “D (No activity noticed in this bioassay)”.

Consider `COc1ccc(N2CCN/C2=N\C(=O)Nc2ccc(-c3ncn(-c4ccc(OC(F)(F)F)cc4)n3)cc2)cc1` [F21, (E)-1-(1-(4-Methoxyphenyl)imidazolidin-2-ylidene)-3-(4-(1-(4-(trifluoromethoxy)phenyl)-1H-1,2,4-triazol-3-yl)phenyl)urea], for which the mortality at 50 µg/cm2 in data set [1] and in data set [3] was 50 to 100% each time. In addition, the “YFM rating, % Control (or Mortality)” value in data set [2] was “A (80-100)”.

In the case of `N/C(=N\C(=O)Nc1ccc(-c2ncn(-c3ccc(OC(F)(F)F)cc3)n2)cc1)Nc1ccccc1Cc1ccccc1` [F2, (1E)-1-[Amino-(2-benzylanilino)methylene]-3-[4-[1-[4-(trifluoromethoxy)phenyl]-1H-1,2,4-triazol-3-yl]phenyl]urea], the mortality at 50 µg/cm2 in data set [1] and in data set [3] was 50 to 100% in each case. Besides, the “YFM rating, % Control (or Mortality)” value in data set [2] is “A (80-100)”.

For the compound `Cc1cc(Cl)ccc1N1CCN/C1=N\C(=O)Nc1ccc(-c2ncn(-c3ccc(OC(F)(F)F)cc3)n2)cc1` [F12, (E)-1-(1-(4-Chloro-2-methylphenyl)imidazolidin-2-ylidene)-3-(4-(1-(4-(trifluoromethoxy)phenyl)-1H-1,2,4-triazol-3-yl)phenyl)urea], the mortality at 50 µg/cm2 in data set [1] is 50 to 100%; in data set [3], 0 to 50%. In addition, the “YFM rating, % Control (or Mortality)” value in data set [2] was “D (No activity noticed in this bioassay)”.

In the case of `CCCc1ccccc1N/C(N)=N/C(=O)Nc1ccc(-c2ncn(-c3ccc(OC(F)(F)F)cc3)n2)cc1` [F6, (1E)-1-[Amino-(2-propylanilino)methylene]-3-[4-[1-[4-(trifluoromethoxy)phenyl]-1H-1,2,4-triazol-3-yl]phenyl]urea], the mortality at 50 µg/cm2 in data set [1] and in data set [3] was 50 to 100% each time. The “YFM rating, % Control (or Mortality)” value in data set [2] was “A (80-100)”.

As for `CCc1ccccc1N/C(N)=N/C(=O)Nc1ccc(-c2ncn(-c3ccc(OC(F)(F)F)cc3)n2)cc1` [F3, (1E)-1-[Amino-(2-ethylanilino)methylene]-3-[4-[1-[4-(trifluoromethoxy)phenyl]-1H-1,2,4-triazol-3-yl]phenyl]urea], the mortality at 50 µg/cm2 in data set [1] and in data set [3] was 50 to 100% each time. Further, in data set [2], the “YFM rating, % Control (or Mortality)” value was “A (80-100)”.

In the case of `Cc1cc(C)c(N2CCN/C2=N\C(=O)Nc2ccc(-c3ncn(-c4ccc(OC(F)(F)F)cc4)n3)cc2)c(C)c1` [F17, (E)-1-(1-Mesitylimidazolidin-2-ylidene)-3-(4-(1-(4-(trifluoromethoxy)phenyl)-1H-1,2,4-triazol-3-yl)phenyl)urea], the mortality at 50 µg/cm2 in data set [1] and in data set [3] was 50 to 100% each time. Also, the “YFM rating, % Control (or Mortality)” value in data set [2] was “A (80-100)”.

As to `Cc1ccc(C)c(N/C(N)=N/C(=O)Nc2ccc(-c3ncn(-c4ccc(OC(F)(F)F)cc4)n3)cc2)c1` [F7, (1E)-1-[Amino-(2,5-dimethylanilino)methylene]-3-[4-[1-[4-(trifluoromethoxy)phenyl]-1H-1,2,4-triazol-3-yl]phenyl]urea], the mortality at 50 µg/cm2 in data set [1] and in data set [3] was 50 to 100% throughout. Besides, the “YFM rating, % Control (or Mortality)” value in data set [2] was “A (80-100)”.

Take `CCc1ccccc1N1CCN/C1=N\C(=O)Nc1ccc(-c2ncn(-c3ccc(OC(F)(F)F)cc3)n2)cc1` [F14, (E)-1-(1-(2-Ethylphenyl)imidazolidin-2-ylidene)-3-(4-(1-(4-(trifluoromethoxy)phenyl)-1H-1,2,4-triazol-3-yl)phenyl)urea]: the mortality at 50 µg/cm2 in data set [1] and in data set [3] was 50 to 100% each time. Also, the “YFM rating, % Control (or Mortality)” value in data set [2] was “A (80-100)”.

In the case of `Cc1ccc(N/C(N)=N/C(=O)Nc2ccc(-c3ncn(-c4ccc(OC(F)(F)F)cc4)n3)cc2)c(C)c1` [F8, (1E)-1-[Amino-(2,4-dimethylanilino)methylene]-3-[4-[1-[4-(trifluoromethoxy)phenyl]-1H-1,2,4-triazol-3-yl]phenyl]urea], the mortality at 50 µg/cm2 in data set [1] and in data set [3] was 50 to 100% each time. Also, in data set [2], the “YFM rating, % Control (or Mortality)” value is “A (80-100)”.

Turning to `COc1cccc(N2CCN/C2=N\C(=O)Nc2ccc(-c3ncn(-c4ccc(OC(F)(F)F)cc4)n3)cc2)c1` [F20, (E)-1-(1-(3-Methoxyphenyl)imidazolidin-2-ylidene)-3-(4-(1-(4-(trifluoromethoxy)phenyl)-1H-1,2,4-triazol-3-yl)phenyl)urea], the mortality at 50 µg/cm2 in data set [1] and in data set [3] was 50 to 100% throughout. For the same compound, the “YFM rating, % Control (or Mortality)” value in data set [2] is reported as “A (80-100)”.

For `O=C(/N=C1\NCCN1c1ccccc1)Nc1ccc(-c2ncn(-c3ccc(OC(F)(F)F)cc3)n2)cc1` [F16, (E)-1-(1-Phenylimidazolidin-2-ylidene)-3-(4-(1-(4-(trifluoromethoxy)phenyl)-1H-1,2,4-triazol-3-yl)phenyl)urea], the mortality at 50 µg/cm2 in data set [1] and in data set [3] was 50 to 100% in each case. In addition, in data set [2], the “YFM rating, % Control (or Mortality)” value was “A (80-100)”.

Turning to `CC(C)c1ccccc1N/C(N)=N/C(=O)Nc1ccc(-c2ncn(-c3ccc(OC(F)(F)F)cc3)n2)cc1` [F10, (1E)-1-[Amino-(2-isopropylanilino)methylene]-3-[4-[1-[4-(trifluoromethoxy)phenyl]-1H-1,2,4-triazol-3-yl]phenyl]urea], the mortality at 50 µg/cm2 in data set [1] and in data set [3] was 50 to 100% throughout. Further, the “YFM rating, % Control (or Mortality)” value in data set [2] is listed as “A (80-100)”.
